Test results: EP2966448B1, “METHOD FOR THE PREDICTION OR PROGNOSIS OF THE RESPONSE OF A HUMAN SUBJECT SUFFERING FROM CANCER TO TREATMENT WITH AN ANTAGONIST OF THE NK1 RECEPTOR” (priority 2013, dated 2014)

Assays:
Prostate carcinoma = assay: Inhibition of primary tumor cell cultures vs Kras mutation (Example 2); assay type: cell-based, human; conditions: Prostate carcinoma, 100 micromolar
Procedure: (§1) Cell cultures. To obtain tumor cells from human primary tumors we used the method described in De Bari et al. (De Bari et al. 2001). Briefly, small pieces of the tumors were digested into a hyaluronidase solution (Sigma-Aldrich, USA) at a concentration of 1 mg/ml during 15 minutes at 37°C, and then they were treated with 6 mg/ml of collagenase type IV (Invitrogen) during 2 hours at 37°C. Consecutively, cells were washed, and resuspended in the DMEM culture medium with high concentration of glucose (Dulbecco's Modified Eagle's Medium, Invitrogen) supplemented with 1% of antibiotics-antimycotics (Invitrogen) and with 1% of sodium pyruvate (Invitrogen), and the cells were seeded in culture slides at a concentration of 10.000 cells per square centimeter. When cells reached confluence, the adherent cells were separated using sterile trypsin at 0,5% (Invitrogen) and they were used among passages 3 and 9. For the assays shown next, tumor cells were seeded on slides at a concentration of 25.000 cells per well. A total of 6 wells containing the tumor cells were used as survival control. […] All the cultures were kept during 48 hours and later on recollected for their analysis.
(§2) In each case the presence or not of mutations in K-ras gene was determined.
(§3) To determine the existence of mutations in the K-ras gene DNA from cancer tumor cells was extracted from samples obtained from the different cancer tumor cells, using DNA extraction kits from Takara (Madison, WI, US) or Ambion (Huntingdon, Cambridgeshire, United Kingdom), following the manufacturer's instructions, and as it has been previously published (Di Fiore F, et al. 2007). Consecutively it was analyzed by sequencing the exon 2 of the KRAS gene, , by means of PCR amplification from previously extracted cancer tumor DNA, using the following sense primer (SEQ ID NO. 15): 5'-[sequence]-3' and anti-sense primer (SEQ ID NO. 16): 5'-[sequence]-3'. After the purification using the Qiagen extraction kit, the PCR products were sequenced using the Big Dye Terminator Kit V3.1 (Applied Biosystems, Foster City, CA, U.S.) and an ABI Prism 377 or 3100 DNA sequencer (Applied Biosystems). The presence of a heterozygous mutation in the KRAS gene in cancer tumor cells of the cultures was defined as the appearance of a mutant peak of a height of at least a third of the wild type. All the sequence analysis were executed at least twice in two independent PCR.
(§4) The percentages of inhibition are expressed in percentage of variation in relation to control ± standard deviation.

[1] = system: Undifferentiated Pleomorphic Sarcoma (malignant fibrous histiocytoma grade 3); assay: as above; assay type: cell-based, human; conditions: Undifferentiated Pleomorphic Sarcoma (malignant fibrous histiocytoma grade 3), 100 micromolar
Procedure: as §1, §2, §3, §4

[2] = system: human primary tumor cells; assay: Inhibition of primary tumor cell cultures vs low or high expression of the truncated form of NK1 receptor (Example 5; tumor type per table line); assay type: cell-based; conditions: for Percentage of inhibition of cell cultures: 100 micromolar
Procedure: as §1
The presence of the truncated form of NK1 receptor was determined and then cells were cultured in presence of several antagonists of the NK1 receptor.
In each case the presence of the truncated form of the NK1 receptor was determined.
To determine the presence of the truncated form of the gene of NK1 receptor PCR technique was performed (Polymerase Chain Reaction). The extraction of RNA, amplifications of PCR, cycle conditions and quantitative analysis were executed as it has been previously described. The specific primers were the following: For the full-length NK1R receptor (NM_001058.3; forward (SEQ ID NO: 17)-: 5'-[sequence]-3 ' and reverse- (SEQ ID NO:18): 5'-[sequence]-3') and for the truncated NK1receptor (NM_015727.2; forward (SEQ ID NO: 19): 5'-[sequence]-3 and reverse (SEQ ID NO;20): 5'-[sequence]-3').
Cases were distributed in two groups: • Group A -low expression of the truncated form of NK1 receptor- for those cases wherein the expression of the truncated form of NK1 receptor was less than double the expression of the full length form of such receptor. • Group B -high expression of the truncated form of NK1 receptor- for those cases wherein the expression of the truncated form of the NK1 receptor was higher than double the expression of the full length form of such receptor.
The percentages of inhibition are expressed in percentage of variation in relation to the control ± standard deviation.

[3] = system: human primary tumor cells; assay: Inhibition of primary tumor cell cultures vs amplification of the gene encoding the NK1 receptor (Example 6; tumor type per table line); assay type: cell-based; conditions: for Percentage of inhibition of cell cultures: 100 micromolar
Procedure: Cell cultures. […] Briefly, small pieces of the tumors were digested into a hyaluronidase solution (Sigma-Aldrich, USA) at a concentration of 1 mg/ml during 15 minutes at 37°C, and then they were treated with 6 mg/ml of collagenase type IV (Invitrogen) during 2 hours at 37°C. Consecutively, cells were washed, and resuspended in the DMEM culture medium with high concentration of glucose (Dulbecco's Modified Eagle's Medium, Invitrogen) supplemented with 1% of antibiotics-antimycotics (Invitrogen) and with 1% of sodium pyruvate (Invitrogen), and the cells were seeded in culture slides at a concentration of 10.000 cells per square centimeter. When cells reached confluence, the adherent cells were separated using sterile trypsin at 0,5% (Invitrogen) and they were used among passages 3 and 9. For the assays shown next, tumor cells were seeded on slides at a concentration of 25.000 cells per well. A total of 6 wells containing the tumor cells were used as survival control. […] All the cultures were kept during 48 hours and later on recollected for their analysis.
The presence or absence of the amplification of the gene encoding for the NK1 receptor was determined, and then the cells were cultured in the presence of several antagonists of the NK1 receptor.
For each case, the presence or absence of amplification of the gene encoding for the NK1 receptor was determined.
In order to determine the presence of the amplification (increase in the number of copies) of the gene encoding the NK1 receptor (TAC1R), it was used the comparative genomic hybridization technique (CGH Array). Firstly genomic DNA was extracted from each case. Later, it was performed the marking and hybridization of the DNA of each sample together with DNA of a commercial reference without genomic alterations (from masculine or feminine sex, depending on the gender of the patient from whom the samples were obtained). The Array is Sureprint G3 Human CGH Microarray from the company Agilent was used, with an average separation between probes of 5.3Kb and 4.6Kb for the genes RefSeq. The reading of the microarray was done with the DNA Microarray Scanner G2565CA from Agilent, at a resolution of 3 µm. The analysis of the results was performed with the software Cytogenomics v 2.0.6.0 from Agilent with ADM-2: 6.0; Centralization: ON (Threshold: 6.0, Bin size: 10); Fuzzy zero: ON; Aberration filters: ON (minProbes=5 and minAvgAbsLopRatio= 0,5); Feature Level Filters : ON. The genomic coordinates are coincident with the NCBI36genome (hg18). Cases were distributed in two groups: Group I for those cases without the amplification of the gene encoding the NK1 receptor (locus 2p13.1-p12), and Group II for those cases with amplification of the gene encoding the NK1receptor (locus 2p13.1-p12).
The antibody against NK1 receptor (Table 36) was used at 1/50 concentration. The percentages of inhibition are expressed in percentages of variation in relation to control ± standard deviation.

[4] = Cases with Kras non-mutated (wild type)

Cc1cc(F)ccc1[C@H]1CNCCN1C(=O)N(C)[C@H](C)c1cc(C(F)(F)F)cc(C(F)(F)F)c1 [Vestipitant]
Percentage of inhibition of cell cultures (Prostate carcinoma; Cases with Kras mutated): 24±4 percentage | Percentage of inhibition of cell cultures (Prostate carcinoma; [4]): 96±4 percentage | Percentage of inhibition of cell cultures ([1]; Cases with Kras mutated): 26±4 percentage | Percentage of inhibition of cell cultures [1, 4]: 95±6 percentage | Percentage of inhibition of cell cultures ([2]; Glioma (astrocytoma), Cases with high expression of the truncated form of NK1 receptor (Group B)): 94±5 percentage | Percentage of inhibition of cell cultures ([2]; Glioma (astrocytoma), Cases with low expression of the truncated form of NK1 receptor (Group A)): 25±5 percentage | Percentage of inhibition of cell cultures ([2]; Lung carcinoma (non small cell lung carcinoma), Cases with high expression of the truncated form of NK1 receptor (Group B)): 94±4 percentage | Percentage of inhibition of cell cultures ([2]; Lung carcinoma (non small cell lung carcinoma), Cases with low expression of the truncated form of NK1 receptor (Group A)): 26±4 percentage | Percentage of inhibition of cell cultures ([2]; Melanoma (Nodular Melanoma), Cases with high expression of the truncated form of NK1 receptor (Group B)): 96±4 percentage | Percentage of inhibition of cell cultures ([2]; Melanoma (Nodular Melanoma), Cases with low expression of the truncated form of NK1 receptor (Group A)): 24±5 percentage | Percentage of inhibition of cell cultures ([2]; Non Hodgkin Lymphoma B (diffuse B cell lymphoma), Cases with high expression of the truncated form of NK1 receptor (Group B)): 98±5 percentage | Percentage of inhibition of cell cultures ([2]; Non Hodgkin Lymphoma B (diffuse B cell lymphoma), Cases with low expression of the truncated form of NK1 receptor (Group A)): 23±5 percentage | Percentage of inhibition of cell cultures ([2]; Non Hodgkin Lymphoma T (diffuse T cell lymphoma), Cases with high expression of the truncated form of NK1 receptor (Group B)): 98±4 percentage | Percentage of inhibition of cell cultures ([2]; Non Hodgkin Lymphoma T (diffuse T cell lymphoma), Cases with low expression of the truncated form of NK1 receptor (Group A)): 23±4 percentage | Percentage of inhibition of cell cultures ([2]; Prostate carcinoma, Cases with high expression of the truncated form of NK1 receptor (Group B)): 95±6 percentage | Percentage of inhibition of cell cultures ([2]; Prostate carcinoma, Cases with low expression of the truncated form of NK1 receptor (Group A)): 24±6 percentage | Percentage of inhibition of cell cultures ([2]; Thyroid carcinoma (follicular carcinoma), Cases with high expression of the truncated form of NK1 receptor (Group B)): 95±5 percentage | Percentage of inhibition of cell cultures ([2]; Thyroid carcinoma (follicular carcinoma), Cases with low expression of the truncated form of NK1 receptor (Group A)): 27±3 percentage | Percentage of inhibition of cell cultures ([2]; Thyroid carcinoma (papillary carcinoma), Cases with high expression of the truncated form of NK1 receptor (Group B)): 96±6 percentage | Percentage of inhibition of cell cultures ([2]; Thyroid carcinoma (papillary carcinoma), Cases with low expression of the truncated form of NK1 receptor (Group A)): 26±5 percentage | Percentage of inhibition of cell cultures ([2]; Undifferentiated Pleomorphic Sarcoma (malignant fibrous histiocytoma grade 3), Cases with high expression of the truncated form of NK1 receptor (Group B)): 95±3 percentage | Percentage of inhibition of cell cultures ([2]; Undifferentiated Pleomorphic Sarcoma (malignant fibrous histiocytoma grade 3), Cases with low expression of the truncated form of NK1 receptor (Group A)): 26±4 percentage | Percentage of inhibition of cell cultures ([2]; Urinary bladder carcinoma (transitional cell carcinoma), Cases with high expression of the truncated form of NK1 receptor (Group B)): 94±5 percentage | Percentage of inhibition of cell cultures ([2]; Urinary bladder carcinoma (transitional cell carcinoma), Cases with low expression of the truncated form of NK1 receptor (Group A)): 25±4 percentage | inhibition of cell proliferation ([2]; cancer cell cultures that show more expression of the truncated form of NK1 receptor, compared, non-peptidic antagonists 100 micromolar, antibody 1/50): higher inhibition | Percentage of inhibition of cell cultures ([3]; Breast carcinoma (ductal adenocarcinoma), Cases with amplification of the gene that encodes for the NK1 receptor): 94±6 percentage | Percentage of inhibition of cell cultures ([3]; Breast carcinoma (ductal adenocarcinoma), Cases without amplification of the gene that encodes for the NK1 receptor): 24±3 percentage | Percentage of inhibition of cell cultures ([3]; Burkitt Lymphoma, Cases with amplification of the gene that encodes for the NK1 receptor): 97±5 percentage | Percentage of inhibition of cell cultures ([3]; Burkitt Lymphoma, Cases without amplification of the gene that encodes for the NK1 receptor): 23±5 percentage | Percentage of inhibition of cell cultures ([3]; Carcinoma of the uterine cervix (Squamous cell carcinoma), Cases with amplification of the gene that encodes for the NK1 receptor): 94±6 percentage | Percentage of inhibition of cell cultures ([3]; Carcinoma of the uterine cervix (Squamous cell carcinoma), Cases without amplification of the gene that encodes for the NK1 receptor): 26±6 percentage | Percentage of inhibition of cell cultures ([3]; Colon carcinoma (Adenocarcinoma), Cases with amplification of the gene that encodes for the NK1 receptor): 93±3 percentage | Percentage of inhibition of cell cultures ([3]; Colon carcinoma (Adenocarcinoma), Cases without amplification of the gene that encodes for the NK1 receptor): 24±4 percentage | Percentage of inhibition of cell cultures ([3]; Endometrium carcinoma, Cases with amplification of the gene that encodes for the NK1 receptor): 95±5 percentage | Percentage of inhibition of cell cultures ([3]; Endometrium carcinoma, Cases without amplification of the gene that encodes for the NK1 receptor): 23±5 percentage | Percentage of inhibition of cell cultures ([3]; Gastric carcinoma (Adenocarcinoma), Cases with amplification of the gene that encodes for the NK1 receptor): 94±4 percentage | Percentage of inhibition of cell cultures ([3]; Gastric carcinoma (Adenocarcinoma), Cases without amplification of the gene that encodes for the NK1 receptor): 25±5 percentage | Percentage of inhibition of cell cultures ([3]; Glioma (astrocytoma), Cases with amplification of the gene that encodes for the NK1 receptor): 94±7 percentage | Percentage of inhibition of cell cultures ([3]; Glioma (astrocytoma), Cases without amplification of the gene that encodes for the NK1 receptor): 26±5 percentage | Percentage of inhibition of cell cultures ([3]; Lung carcinoma (non small cell lung carcinoma), Cases with amplification of the gene that encodes for the NK1 receptor): 93±5 percentage | Percentage of inhibition of cell cultures ([3]; Lung carcinoma (non small cell lung carcinoma), Cases without amplification of the gene that encodes for the NK1 receptor): 24±4 percentage | Percentage of inhibition of cell cultures ([3]; Lung carcinoma (small cell lung carcinoma), Cases with amplification of the gene that encodes for the NK1 receptor): 94±4 percentage | Percentage of inhibition of cell cultures ([3]; Lung carcinoma (small cell lung carcinoma), Cases without amplification of the gene that encodes for the NK1 receptor): 25±3 percentage | Percentage of inhibition of cell cultures ([3]; Melanoma (Nodular Melanoma), Cases with amplification of the gene that encodes for the NK1 receptor): 96±5 percentage | Percentage of inhibition of cell cultures ([3]; Melanoma (Nodular Melanoma), Cases without amplification of the gene that encodes for the NK1 receptor): 24±6 percentage | Percentage of inhibition of cell cultures ([3]; Non Hodgkin Lymphoma B (diffuse B cell lymphoma), Cases with amplification of the gene that encodes for the NK1 receptor): 94±6 percentage | Percentage of inhibition of cell cultures ([3]; Non Hodgkin Lymphoma B (diffuse B cell lymphoma), Cases without amplification of the gene that encodes for the NK1 receptor): 27±5 percentage | Percentage of inhibition of cell cultures ([3]; Non Hodgkin Lymphoma T (diffuse T cell lymphoma), Cases with amplification of the gene that encodes for the NK1 receptor): 95±4 percentage | Percentage of inhibition of cell cultures ([3]; Non Hodgkin Lymphoma T (diffuse T cell lymphoma), Cases without amplification of the gene that encodes for the NK1 receptor): 29±3 percentage | Percentage of inhibition of cell cultures ([3]; Ovarian carcinoma(Adenocarcinoma), Cases with amplification of the gene that encodes for the NK1 receptor): 96±5 percentage | Percentage of inhibition of cell cultures ([3]; Ovarian carcinoma(Adenocarcinoma), Cases without amplification of the gene that encodes for the NK1 receptor): 25±4 percentage | Percentage of inhibition of cell cultures ([3]; Pancreatic carcinoma (Adenocarcinoma), Cases with amplification of the gene that encodes for the NK1 receptor): 93±4 percentage | Percentage of inhibition of cell cultures ([3]; Pancreatic carcinoma (Adenocarcinoma), Cases without amplification of the gene that encodes for the NK1 receptor): 25±3 percentage | Percentage of inhibition of cell cultures ([3]; Prostate carcinoma, Cases with amplification of the gene that encodes for the NK1 receptor): 96±6 percentage | Percentage of inhibition of cell cultures ([3]; Prostate carcinoma, Cases without amplification of the gene that encodes for the NK1 receptor): 25±6 percentage | Percentage of inhibition of cell cultures ([3]; Renal cell carcinoma (clear cell renal cell carcinoma), Cases with amplification of the gene that encodes for the NK1 receptor): 94±5 percentage | Percentage of inhibition of cell cultures ([3]; Renal cell carcinoma (clear cell renal cell carcinoma), Cases without amplification of the gene that encodes for the NK1 receptor): 27±4 percentage | Percentage of inhibition of cell cultures ([3]; Thyroid carcinoma (follicular carcinoma), Cases with amplification of the gene that encodes for the NK1 receptor): 94±6 percentage | Percentage of inhibition of cell cultures ([3]; Thyroid carcinoma (follicular carcinoma), Cases without amplification of the gene that encodes for the NK1 receptor): 25±5 percentage | Percentage of inhibition of cell cultures ([3]; Thyroid carcinoma (papillary carcinoma), Cases with amplification of the gene that encodes for the NK1 receptor): 97±4 percentage | Percentage of inhibition of cell cultures ([3]; Thyroid carcinoma (papillary carcinoma), Cases without amplification of the gene that encodes for the NK1 receptor): 26±3 percentage | Percentage of inhibition of cell cultures ([3]; Undifferentiated Pleomorphic Sarcoma (malignant fibrous histiocytoma grade 3), Cases with amplification of the gene that encodes for the NK1 receptor): 95±7 percentage | Percentage of inhibition of cell cultures ([3]; Undifferentiated Pleomorphic Sarcoma (malignant fibrous histiocytoma grade 3), Cases without amplification of the gene that encodes for the NK1 receptor): 27±4 percentage | Percentage of inhibition of cell cultures ([3]; Urinary bladder carcinoma (transitional cell carcinoma), Cases with amplification of the gene that encodes for the NK1 receptor): 95±5 percentage | Percentage of inhibition of cell cultures ([3]; Urinary bladder carcinoma (transitional cell carcinoma), Cases without amplification of the gene that encodes for the NK1 receptor): 24±5 percentage | inhibition of cell proliferation ([3]; cancer cell cultures which show amplification in the genomic region encoding the NK1 receptor, compared, non-peptidic antagonists 100 micromolar, antibody 1/50): higher inhibition
